Experiments:
[1] = system: human umbilical vein endothelial cells; assay: S1P induced calcium response in human umbilical vein endothelial cells; assay type: cell-based; settings: HUVEC; FIG. 4, 5
[2] = system: mouse T cells; assay: Mouse T cell migration in Transwell chambers with matrigel; assay type: cell-based; settings: in the presence of S1P; FIG. 14
Experimental: To further elucidate the role of the Edg-1 receptor in lymphocyte trafficking, migration of mouse T cells was analyzed in both in vitro and in vivo models. Migration of mouse T cells was first tested in Transwell chambers (Costar, Cambridge, Mass.) with polycarbonate fibers having a pore width of 8 μm, separated by a layer of matrigel. Stimulants S1P or exodus-2 were separately added to the bottom chamber. The effects of exodus-2 were tested alone, with S1P, and with S1P and Edg-1 antagonists 101 and 102.

[3] = target: T1, human Edg-1 receptors (Homo sapiens, UniProt P21453); assay: Intracellular calcium (FLIPR) assay, HTC cells expressing Edg-1; assay type: cell-based; parameters: Edg 1 IC50 μM; fused on or other part: in the chimera reading: the third intracellular loop (i3) of Edg-3 (S1PR3) in place of Edg-1's own
Experimental: (§1) The compounds were tested in HTC cells expressing human Edg-1 receptors. […] The compounds were tested in this recombinant system first, and subsequently tested in cell lines expressing Edg-1 (in addition to other Edg receptors).
(§2) […] receptors such as Edg-1, couple to calcium effector pathways, and result in increases in intracellular calcium following receptor activation (An, 1998, J. Cell Biochem. Supp 30-31:147-157). This biological response lends itself to a very efficient, high-throughput screen using a Fluorescence Imaging Plate Reader (FLIPR; Molecular Devices, Sunnyvale, Calif.). The FLIPR system is a real-time, cell-based assay system with continuous fluorescence detection using a cooled CCD camera. The FLIPR system was used to develop an Edg-1 receptor screen. Rat hepatoma cells stably expressing Edg-1/3i3 chimera or Edg-1 and Gqi were plated on 384-well plates and loaded with a calcium dye loading kit (Molecular Devices, Sunnyvale, Calif.) for 1 hour at room temperature. Cells were then placed on the FLIPR^384 (Molecular Devices, Sunnyvale, Calif.) and excited by an argon laser at 488 nm. The data for the entire 384-well plate was updated every second. An integrated robotic pipettor allowed for simultaneous compound addition into each individual well in the plate.

[4] = system: human Edg-1 receptors; assay: as above; assay type: cell-based; settings: Edg-1 relative to other Edg receptors
Experimental: as §1, §2

[5] = target: T1, human Edg-1 receptors; assay: Intracellular calcium (FLIPR) assay, HTC cells expressing Edg-1; assay type: cell-based; parameters: expressed in transfected cells; host or cells: HTC rat hepatoma cells; settings: agonist; Edg 1/Gqi
Experimental: as §1, §2

[6] = system: Null/Gqi; assay: Intracellular calcium (FLIPR) assay, Null/Gqi control cells; assay type: cell-based; settings: Rattus norvegicus; agonist
[7] = system: human peripheral blood mononuclear cells; assay: Migration of human peripheral blood mononuclear cells; assay type: cell-based; settings: chemoattractant; FIG. 9, 13
Experimental: S1P is a strong chemoattractant to human PBMCs. […] Several migration assays were performed to test this hypothesis and to determine the effect of Edg-1 agonists and antagonists on S1P mediated chemotaxis. The migration assays were performed according to the protocol described in Section 7.12, below. The results of theses assays are presented in FIG. 6, FIG. 7, FIG. 8, FIG. 9 and FIG. 13.
Cells were plated in a 24 well format using Fluoroblok filter insert plates ([…] pore size) or Fluoroblok matrigel coated filter insert plates (Becton Dickinson, San Diego, Calif.). The assay was a modified Boyden Chamber assay in which a cell suspension (1×10^5 cells/ml) was prepared in serum free medium and added to the top chamber. LPA or S1P (doses ranged from 0.1-10 μM in serum free medium) was added to the bottom chamber. Following a 20-24 hour incubation period, the number of cells migrating or invading into the lower chamber was quantitated by transferring the filter insert into a fresh 24-well plate containing 4 μg/ml calcein AM (Molecular Probes, Sunnyvale, Calif.) in Hank's Balanced Salt Solution and staining for one hour.
Detection was via fluorescent readout at 450 nm excitation/530 nm emission using a fluorimeter. The level of fluorescence correlated with cell number.
Human PBMCs are isolated from the buffy coats of healthy donors from the Stanford Blood Center. […]

T1 sequence (P21453 whole entry, the tested form may be a part): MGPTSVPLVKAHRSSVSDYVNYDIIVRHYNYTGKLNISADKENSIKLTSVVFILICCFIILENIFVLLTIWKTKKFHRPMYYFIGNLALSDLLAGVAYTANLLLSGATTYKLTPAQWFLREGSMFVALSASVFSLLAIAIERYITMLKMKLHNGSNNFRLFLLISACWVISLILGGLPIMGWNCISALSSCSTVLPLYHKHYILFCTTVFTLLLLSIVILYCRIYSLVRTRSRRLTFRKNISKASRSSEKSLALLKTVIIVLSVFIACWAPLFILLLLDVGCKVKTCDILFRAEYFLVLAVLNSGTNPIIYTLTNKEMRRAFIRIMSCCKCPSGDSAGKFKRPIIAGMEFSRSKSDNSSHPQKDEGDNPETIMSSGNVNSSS

Compound	inhibition of S1P induced calcium responses [1]	effect on exodus-2-stimulated T cell migration [2]	inhibition of Edg-1 receptors ([3]; FIG. 1-3)	IC50 ([3]; Table 2, inhibition of S1P response, read-out: Edg 1 IC50) [µM]	Fold Selectivity ([4]; inhibition (Table 2)) [Fold]	melting point [°C]	Fold Selectivity ([4]; agonist (Table 4)) [Fold]	EC50 [5] [µM]	EC50 [6] [µM]	migration of human peripheral blood mononuclear cells [7]
O=C(c1cccnc1)N1N=C(c2ccc(Br)cc2)CC1(O)C(F)(F)F (stereo not shown) [Compound 102]	inhibits S1P induced calcium responses in a dose-dependent manner	enhance exodus-2-stimulated migration	specifically inhibited	1.69	>11.8	150 to 152	–	–	–	–
COc1cc(C(=O)c2cc(Cl)ccc2N)cc(OC)c1OC [Compound 104, (2-Amino-5-chlorophenyl)-(3,4,5-trimethoxyphenyl)methanone]	–	–	–	–	–	–	>2.5	10	> 25	stimulates migration of human peripheral blood mononuclear cells at micromolar concentrations

Reference: patent publication US20040147562A1, “Methods of treating conditions associated with an EDG-1 receptor” (priority 2002, published 2004)
